Data published in patent US12673947B2 (Cytosinlab Therapeutics Co., Ltd., priority 2020, dated 2026).

Legend:
MV4;11 cells = test: MV4;11 in vitro inhibition of proliferation assay (CellTiter-Glo, 72 hours); assay type: cell-based; settings: Homo sapiens, MV4-11, 72 h, IC50 class, read-out: Inhibitory activity of cell proliferation MV4;11
Procedure, shortened: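 MV4;11 cells in IMDM/10% FBS, 2000 per well, were exposed to 9-point 3-fold DMSO dilutions from 10 uM (final DMSO 0.3%) in triplicate for 72 hours at 37° C., 5% CO2. Viability was read by CellTiter-Glo luminescence, and IC50 came from a four-parameter fit of inhibition.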

FLT3 = target: T1, FLT3 (Homo sapiens, UniProt P36888); test: FLT3 kinase in vitro inhibitory activity experiment (Caliper mobility shift, conversion rate); assay type: biochemical; settings: IC50 class, read-out: Enzyme activity FLT3
T1 construct: purchased Carna 08-145
T1 sequence (P36888 27-993): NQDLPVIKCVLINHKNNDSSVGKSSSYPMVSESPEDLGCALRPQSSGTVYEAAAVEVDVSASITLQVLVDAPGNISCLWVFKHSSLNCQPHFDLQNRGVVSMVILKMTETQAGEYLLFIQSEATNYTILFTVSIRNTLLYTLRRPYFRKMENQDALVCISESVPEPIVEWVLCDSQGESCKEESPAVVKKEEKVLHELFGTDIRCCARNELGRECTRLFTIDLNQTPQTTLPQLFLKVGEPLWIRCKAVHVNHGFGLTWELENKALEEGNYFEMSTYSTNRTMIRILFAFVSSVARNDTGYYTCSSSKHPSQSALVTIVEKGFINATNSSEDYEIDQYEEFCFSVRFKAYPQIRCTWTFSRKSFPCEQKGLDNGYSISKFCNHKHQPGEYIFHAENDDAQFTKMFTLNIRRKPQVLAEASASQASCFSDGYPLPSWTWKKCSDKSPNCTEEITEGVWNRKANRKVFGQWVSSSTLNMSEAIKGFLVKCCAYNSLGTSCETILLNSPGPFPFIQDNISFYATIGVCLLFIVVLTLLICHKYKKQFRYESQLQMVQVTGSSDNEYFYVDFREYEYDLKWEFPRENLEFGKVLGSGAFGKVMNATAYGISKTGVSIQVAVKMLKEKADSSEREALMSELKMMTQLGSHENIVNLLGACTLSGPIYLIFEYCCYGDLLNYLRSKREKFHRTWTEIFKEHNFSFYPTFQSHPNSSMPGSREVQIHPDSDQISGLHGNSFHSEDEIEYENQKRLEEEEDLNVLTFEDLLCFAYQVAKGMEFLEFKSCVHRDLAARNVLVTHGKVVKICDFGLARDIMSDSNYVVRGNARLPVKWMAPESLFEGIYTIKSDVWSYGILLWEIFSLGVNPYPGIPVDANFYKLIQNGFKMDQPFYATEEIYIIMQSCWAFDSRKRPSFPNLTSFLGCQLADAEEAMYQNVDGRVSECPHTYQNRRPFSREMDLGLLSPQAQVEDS
Procedure, shortened: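 FLT3 was pre-incubated with compound for 10 min at room temperature, then the reaction was started with ATP plus Kinase substrate 2 and run 30 min at room temperature before stop solution. Substrate conversion was read by Caliper mobility shift.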

IC50 (MV4;11 cells)	IC50 (FLT3)	Structure (SMILES)
≤ 10 nM	≤ 10 nM	CCc1nc2c(N)ncc(-c3cnn(-c4cccnc4)c3)c2nc1N[C@@H]1CC[C@H](O)C1 [Compound 302]
10 to 100 nM	≤ 10 nM	CCc1nc2c(N)ncc(-c3cnn(-c4ccc(C)cc4)c3)c2nc1N[C@@H]1CC[C@H](O)C1 [Compound 303]
≤ 10 nM	≤ 10 nM	CCc1nc2c(N)ncc(-c3cnn(-c4cc(C)ncn4)c3)c2nc1N[C@@H]1CC[C@H](O)C1 [Compound 304]
≤ 10 nM	≤ 10 nM	CCc1nc2c(N)ncc(-c3cnn(-c4ccnnc4)c3)c2nc1N[C@@H]1CC[C@H](O)C1 [Compound 306]
≤ 10 nM	≤ 10 nM	CCc1nc2c(N)ncc(-c3cnn(-c4ccnc(C(C)(C)O)c4)c3)c2nc1N[C@@H]1CC[C@H](O)C1 [Compound 308]
≤ 10 nM	≤ 10 nM	CCc1nc2c(N)ncc(-c3cnn(-c4ccnc(OC)c4)c3)c2nc1N[C@@H]1CC[C@H](O)C1 [Compound 309]
10 to 100 nM	≤ 10 nM	CCc1nc2c(N)ncc(-c3cnn(-c4ccnc(N5CCCC5)c4)c3)c2nc1N[C@@H]1CC[C@H](O)C1 [Compound 310]
≤ 10 nM	≤ 10 nM	CCc1nc2c(N)ncc(-c3cnn(-c4ccc(CNC)cc4)c3)c2nc1N[C@@H]1CC[C@H](O)C1 [Compound 311]
10 to 100 nM	≤ 10 nM	CCc1nc2c(N)ncc(-c3ccc(-c4cnn(C5CCN(C)CC5)c4)c(OC)c3)c2nc1N[C@@H]1CC[C@H](O)C1 [Compound 312, (1S, 3R)-3-((5-amino-3-ethyl-8-(3-methoxy-4-(1-(1-methylpiperidin-4-yl)-1H-pyrazol-4-yl)phenyl)pyridino [3,4-b]pyrazin-2-yl)amino) cyclopentan-1-ol]
10 to 100 nM	≤ 10 nM	CCc1nc2c(N)ncc(-c3ccc(-c4ccc(C5CCN(C)CC5)cc4)c(OC)c3)c2nc1N[C@@H]1CC[C@H](O)C1 [Compound 313]
10 to 100 nM	10 to 100 nM	CCc1nc2c(N)ncc(-c3ccc(N4CCC(N5CCCN(C)CC5)CC4)c(OC)c3)c2nc1NC1CCOCC1 [Compound 314]
10 to 100 nM	≤ 10 nM	CCc1nc2c(N)ncc(-c3ccc(N4CCC(N5CCN(CC)CC5)CC4)c(OC)c3)c2nc1NC1CCOCC1 [Compound 315, 3-ethyl-8-(4-(4-(4-ethylpiperazine-1-yl)piperidine-1-yl)-3-methoxyphenyl)-N2-(tetrahydro-2H-pyran-4-yl)pyridino[3,4-b]pyrazine-2,5-diamine]
≤ 10 nM	≤ 10 nM	CCc1nc2c(N)ncc(-c3cnn(-c4ccnc(CO)c4)c3)c2nc1N[C@@H]1CC[C@H](O)C1 [Compound 318]
10 to 100 nM	≤ 10 nM	CCc1nc2c(N)ncc(-c3ccc(N4CCC(N5CCN(CC(F)F)CC5)CC4)c(OC)c3)c2nc1NC1CCOCC1 [Compound 321]
10 to 100 nM	≤ 10 nM	CCc1nc2c(N)ncc(-c3ccc(N4CCC(N5CCN(C)CC5)CC4C)c(OC)c3)c2nc1NC1CCOCC1 (centres unmarked) [Compound 322]
10 to 100 nM	≤ 10 nM	CCc1nc2c(N)ncc(-c3ccc(N4CCC(N5CC[C@@H](NC)C5)CC4)c(OC)c3)c2nc1NC1CCOCC1 [Compound 323]
10 to 100 nM	≤ 10 nM	CCc1nc2c(N)ncc(-c3ccc(N4CCC(N5CC[C@H](NC)C5)CC4)c(OC)c3)c2nc1NC1CCOCC1 [Compound 324]
10 to 100 nM	≤ 10 nM	CCc1nc2c(N)ncc(-c3ccc(N4CCC(N5CCN(CC)CC5)CC4)c(OC)c3)c2nc1N[C@H]1CCOC1 [Compound 325]
10 to 100 nM	10 to 100 nM	CCc1nc2c(N)ncc(-c3ccc(N4CCC(N5CCN(CCC#N)CC5)CC4)c(OC)c3)c2nc1NC1CCOCC1 [Compound 326]
10 to 100 nM	≤ 10 nM	CCc1nc2c(N)ncc(-c3ccc(N4CCC(N5CCC(C)(O)CC5)CC4)c(OC)c3)c2nc1NC1CCOCC1 [Compound 328]
≤ 10 nM	≤ 10 nM	CCc1nc2c(N)ncc(-c3cnn(-c4ccc(C(C)(C)O)nc4)c3)c2nc1N[C@@H]1CC[C@H](O)C1 [Compound 329]

IC50 (MV4;11 cells)	IC50 (FLT3)	Structure (SMILES)
10 to 100 nM	≤ 10 nM	CCc1nc2c(N)ncc(-c3cnn(-c4ncc(C(C)(C)O)cn4)c3)c2nc1N[C@@H]1CC[C@H](O)C1 [Compound 330]
≤ 10 nM	≤ 10 nM	CCc1nc2c(N)ncc(-c3cnn(-c4cnc(C(C)(C)O)nc4)c3)c2nc1N[C@@H]1CC[C@H](O)C1 [Compound 331]
≤ 10 nM	≤ 10 nM	CCc1nc2c(N)ncc(-c3cnn(-c4cnc(C(C)(C)O)cn4)c3)c2nc1N[C@@H]1CC[C@H](O)C1 [Compound 332]
≤ 10 nM	≤ 10 nM	CCc1nc2c(N)ncc(-c3cnn(-c4ccc(C(C)(C)O)cc4)c3)c2nc1N[C@@H]1CC[C@H](O)C1 [Compound 333]
≤ 10 nM	≤ 10 nM	CCc1nc2c(N)ncc(-c3cnn(-c4ncc(C#N)cn4)c3)c2nc1N[C@@H]1CC[C@H](O)C1 [Compound 335]
≤ 10 nM	≤ 10 nM	CCc1nc2c(N)ncc(-c3cnn(-c4ccc(C#N)cc4)c3)c2nc1N[C@@H]1CC[C@H](O)C1 [Compound 336]
10 to 100 nM	≤ 10 nM	CCc1nc2c(N)ncc(-c3cnn(-c4ccc(C#N)nn4)c3)c2nc1N[C@@H]1CC[C@H](O)C1 [Compound 337]
≤ 10 nM	≤ 10 nM	CCc1nc2c(N)ncc(-c3cnn(-c4cnc(C#N)nc4)c3)c2nc1N[C@@H]1CC[C@H](O)C1 [Compound 338]
10 to 100 nM	≤ 10 nM	CCc1nc2c(N)ncc(-c3cnn(-c4cnc(C#N)cn4)c3)c2nc1N[C@@H]1CC[C@H](O)C1 [Compound 339]
10 to 100 nM	≤ 10 nM	CCc1nc2c(N)ncc(-c3cnn(-c4ccc(C(F)F)nc4)c3)c2nc1N[C@@H]1CC[C@H](O)C1 [Compound 340]
≤ 10 nM	≤ 10 nM	CCc1nc2c(N)ncc(-c3cnn(-c4ncc(F)cn4)c3)c2nc1N[C@@H]1CC[C@H](O)C1 [Compound 341]
10 to 100 nM	≤ 10 nM	CCc1nc2c(N)ncc(-c3cnn(-c4ccc(F)c(F)c4)c3)c2nc1N[C@@H]1CC[C@H](O)C1 [Compound 342]
≤ 10 nM	≤ 10 nM	CCc1nc2c(N)ncc(-c3cnn(-c4ccnc(F)c4)c3)c2nc1N[C@@H]1CC[C@H](O)C1 [Compound 343]
≤ 10 nM	≤ 10 nM	CCc1nc2c(N)ncc(-c3cnn(-c4ncc(OC(C)C)cn4)c3)c2nc1N[C@@H]1CC[C@H](O)C1 [Compound 344]
≤ 10 nM	≤ 10 nM	CCc1nc2c(N)ncc(-c3cnn(-c4ccnc(Cl)c4)c3)c2nc1N[C@@H]1CC[C@H](O)C1 [Compound 345]
10 to 100 nM	≤ 10 nM	CCc1nc2c(N)ncc(-c3cnn(-c4ncc(C#N)cn4)c3)c2nc1NC1CCOCC1 [Compound 346]
10 to 100 nM	≤ 10 nM	CCc1nc2c(N)ncc(-c3cnn(-c4ccc(C(C)(C)O)nc4)c3)c2nc1NC1CCOCC1 [Compound 347]
10 to 100 nM	≤ 10 nM	CCc1nc2c(N)ncc(-c3cnn(-c4ncc(C(C)(C)O)cn4)c3)c2nc1NC1CCOCC1 [Compound 348]
10 to 100 nM	≤ 10 nM	CCc1nc2c(N)ncc(-c3cnn(-c4cnc(C(C)(C)O)nc4)c3)c2nc1NC1CCOCC1 [Compound 349]
≤ 10 nM	≤ 10 nM	CCc1nc2c(N)ncc(-c3cnn(-c4ccc(CNC)cc4)c3)c2nc1NC1CCOCC1 [Compound 350]

Structure (SMILES)	IC50 (MV4;11 cells)	IC50 (FLT3)
CCc1nc2c(N)ncc(-c3ccc(N4CCC(N5CC6CCC(C5)N6)CC4)c(OC)c3)c2nc1NC1CCOCC1 [Compound 319, 8-(4-(4-(3,8-diazabicyclo[3.2.1]octane-3-yl)piperidin-1-yl)-3-methoxyphenyl)-3-ethyl-N2-(tetrahydro-2H-pyran-pyridin-4-yl)pyridino [3,4-b]pyrazine-2,5-diamine]	10 to 100 nM	≤ 10 nM
CCc1nc2c(N)ncc(-c3ccc(N4CCC(N5C6CCC5CN(C)C6)CC4)c(OC)c3)c2nc1NC1CCOCC1 [Compound 327, 3-ethyl-8-(3-methoxy-4-(4-(3-methyl-3,8-diazabicyclo[3.2.1]octyl-8-yl)piperidin-1-yl)phenyl)-N2-(tetrahydro-2H-pyran-4-yl)pyridino[3,4-b]pyrazine-2,5-diamine]	10 to 100 nM	≤ 10 nM
